{"source": "paper PMC2921063", "about": "(Cancer Chemotherapy and Pharmacology, 2010)", "key": {"rituximab": {"tested_on": "rituximab", "assay": "Cognate antibody binding to peptide beads, rituximab", "conditions": "10 μm TentaGel beads; flow cytometry and fluorescent microscopy"}, "[1]": {"assay": "Alemtuzumab bead-based detection in normal human serum", "type": "binding", "conditions": "alemtuzumab titrated into normal human serum; fluorescent secondary anti-human IgG; flow cytometry"}, "alemtuzumab": {"tested_on": "alemtuzumab", "assay": "Cognate antibody binding to peptide beads, alemtuzumab", "conditions": "10 μm TentaGel beads; flow cytometry and fluorescent microscopy"}}, "data": [{"substance": "ACPTSNPSLCGGGS [pRTX-10T]", "values": [{"measurement": "antibody binding to peptide beads", "setting": "rituximab", "result": "Specific cognate antibody binding was confirmed"}]}, {"substance": "alemtuzumab: anti-CD52 monoclonal antibody (Genzyme)", "values": [{"measurement": "bead fluorescence vs alemtuzumab concentration", "setting": "[1]", "result": "fluorescent signals correlated with the alemtuzumab concentration"}]}, {"substance": "ACGSLSPSSCGGGS [pCp-1T]", "values": [{"measurement": "antibody binding to peptide beads", "setting": "alemtuzumab", "result": "Specific cognate antibody binding was confirmed"}]}]}
